This note sets out measurements from paper PMC3293837, “Biophysical Property and Broad Anti-HIV Activity of Albuvirtide, a 3-Maleimimidopropionic Acid-Modified Peptide Fusion Inhibitor” (PLoS ONE, 2012).

The subject of series [1] is N36 (NHR target sequence). The series is described as follows: CD spectroscopy (C-peptide alone or with N36). In kind it is physicochemical, HIV-1. The conditions noted are these: PBS pH 7.2, 10 µM (methods), room temperature. The protocol:
CD spectroscopy was performed as previously described, [26]. […] The isolated N- and C-peptides were also tested. […] Data were averaged over three accumulations.

For series [2], the system named is N36 (NHR target sequence). The conditions noted are these: complex with N36; CD at 222 nm, 20–90°C, 1°C per min, 1 µM in PBS buffer. The protocol:
CD spectroscopy was performed as previously described, [26]. […] The final peptide concentration was 10 µM in PBS buffer (pH 7.2). The isolated N- and C-peptides were also tested. The CD spectra of these individual peptides and peptide mixtures were acquired on MOS-450 spectropolarimeter (Bio-Logic, France) using a 1 nm bandwidth with a 1 nm step resolution from 190 to 260 nm at room temperature. The spectra were corrected by subtraction of a blank corresponding to the solvent. Data were averaged over three accumulations. […] Tm value was detected at protein concentration of 1 µM in PBS buffer.

Series [3] has as its system HIV-1HXB2 Env-mediated cell-cell membrane fusion (TZM-bl / HL2/3 cells). The note with it: read-out: IC50, Env-mediated cell-cell fusion; TZM-bl with HL2/3 cells, 6 h, 37°C, luciferase; three independent experiments. The protocol:
Cell fusion was monitored using a reporter gene assay based on activation of HIV LTR-driven luciferase cassette in TZM-bl (Target) cells by HIV-1 tat from the HL2/3 (Effector) cells. Briefly, the TZM-bl cells were plated in 96-well clusters (2×10^4 per well) and incubated at 37°C overnight. […] Luciferase activity was measured using luciferase assay regents (Promega, Medison, WI) and a Luminescence Counter (Promega) according to the manufacture's instructions. Background luminescence in TZM-bl cells was determined without addition of HL2/3 cells.

Series [4] relates to HIV-1NL4-3 Env-pseudotyped virus. In kind it is cell-based. The conditions noted are these: TZM-bl.
Description: (§2) HIV-1 pseudoviruses were generated as described previously [32], [55]–[56]. Briefly, 293T cells (5×10^6 cells in 15 ml of growth medium in a T-75 culture flask) were cotransfected with 10 µg of an Env-expressing plasmid and 20 µg of a backbone plasmid pSG3deltaEnv that encodes Env-defective, luciferase-expressing HIV-1 genome using Lipofectamine 2000 reagent (Invitrogen). Pseudovirus-containing culture supernatants were harvested 48 hours after transfection and filtered by 0.45-mm pore size, and stored at −80°C in 1-ml aliquots until use. The 50% tissue culture infectious dose (TCID50) of a single thawed aliquot of each pseudovirus batch was determined in TZM-bl cells. […] Briefly, the peptides were prepared with ten series dilutions in a 3-fold stepwise manner and mixed with 100 TCID50 viruses and incubated 1 hour at room temperature. The mixture was added to TZM-bl cells (10^4/well) and incubation at 37°C for 48 hours. Luciferase activity was measured using luciferase assay regents (Promega, Medison, WI) and a Luminescence Counter (Promega) according to the manufacture's instructions.
For series [5], the system named is HIV-1 CRF01_AE pseudoviruses. In kind it is cell-based. The conditions noted are these: mean over CRF01_AE pseudoviruses of Table 2; TZM-bl. From the text:
(§1) A panel of plasmids encoding HIV-1 Envs were obtained through the AIDS Research and Reference Reagent Program (ARRRP), Division of AIDS, NIAID, NIH, including subtype A Env clones pSVIII-92RW020.5 and 92UG037.8 from Dr. B.H. Hahn; subtype B Env clones SC422661.8, TRO.11 and AC10.0.29 from Drs. D. Montefiori, F. Gao and M. Li, pRHPA4259.7 and pREJO4541.67 from Drs. B.H. Hahn and J.F. Salazar-Gonzalez, and pCAAN5342.A2 from Drs. B.H. Hahn and D.L. Kothe; subtype C Env clones Du172.17 and Du422.1 from Drs. D. Montefiori, F. Gao, S. Abdool Karim and G. Ramjee, CAP45.2.00.G3 from Drs. L. Morris, K. Mlisana and D. Montefiori, ZM197M.PB7 from Drs. B.H. Hahn, Y. Li and J.F. Salazar-Gonzalez, ZM109F.PB4 from Drs. E. Hunter and C. Derdeyn. Six CRF07_BC Env clones (CH064.20, CH070.1, CH091.9, CH110.2, CH119.10 and CH120.6) were generous gifts by Dr. Y. Shao in the Chinese Center for Disease Control and Prevention, Beijing, China. A panel of Env clones derived from subtype B′ (B01, B02, B04, and 43-22), CRF01_AE (SHX335.24, YN192.31, AE01, AE03, GX2010.36, GX11.13, GX2010.36H, BJ5.11), and CRF07_BC (BC02, BC03, BC05, BC07, BC14, SC19-15, BJ22-5, YN148R-9, XJ50-6, HB5-3) were kindly provided by Dr. Y. Wang from the National Institute for the Control of Pharmaceutical and Biological Products, Beijing, China.

Series [6] deals with HIV-1 CRF07_BC pseudoviruses. Format: cell-based. The note with it: mean over CRF07_BC pseudoviruses of Table 2; TZM-bl.
Source text: as §1

In series [7] the test system is HIV-1 subtype A pseudoviruses. Format: cell-based. The note with it: mean over subtype A pseudoviruses of Table 1; TZM-bl.
Source text: as §1

In series [8] the test system is HIV-1 subtype B pseudoviruses. Format: cell-based.
Source text: as §1

Series [9] concerns HIV-1 subtype B′ pseudoviruses. Format: cell-based. The conditions noted are these: mean over subtype B′ pseudoviruses of Table 2; TZM-bl.
Source text: as §1

In series [10] the test system is HIV-1 subtype C pseudoviruses. In kind it is cell-based. The conditions noted are these: mean over subtype C pseudoviruses of Table 1; TZM-bl.
Source text: as §1

Series [11] deals with T20-resistant HIV-1NL4-3 variants. The note with it: HIV-1NL4-3 with single or double gp41 mutations. As to the method:
Luciferase activity was measured using luciferase assay regents (Promega, Medison, WI) and a Luminescence Counter (Promega) according to the manufacture's instructions.

Series [12] concerns HIV-1NL4-3 V38M pseudovirus. In kind it is cell-based.
Description: as §2
Series [13] deals with HIV-1NL4-3 N43K pseudovirus. Format: cell-based. The conditions noted are these: HIV-1NL4-3 N43K; TZM-bl, 48 h; mean ± SD of three independent experiments.
Description: The mutations were created using double-stranded DNA templates and selection of mutants with DpnI. For each mutation, the two primers contained the desired mutation and occupied the same starting and ending positions on opposite strands of the plasmid DNA. DNA synthesis was carried out by PCR in a 50-µL reaction volume using 1 µL of denatured plasmid template (1 ng/µL), 50 pmol of upper and lower primers and 5 U of high-fidelity thermostable polymerase PrimeStar (Takara, Dalian, China). PCR amplification was carried out for one cycle of denaturation at 98°C for 5 min, then 18 cycles of 98°C for 15 s and 68°C for 15 min, followed a final extension at 72°C for 10 min. The amplicons were treated with the restriction enzyme DpnI for 1 h at 37°C. DpnI-resistant molecules, which were rich in the desired mutants, were recovered by transforming Escherichia coli strain-DH5α to antibiotic resistance. The successful mutations were confirmed by sequencing.
as §2
Series [14] has as its system HIV-1NL4-3 V38A/N42T pseudovirus. Format: cell-based.
Description: as §2
Series [15] has as its system HIV-1NL4-3 L33S infectious molecular clone. In kind it is cell-based.
Description: The mutant viruses were generated by transient transfection of NL4-3 plasmids into 293T cells. The virus stocks were harvested 48 hours post-transfection and quantified for TCID50. […] In brief, 100 TCID50 viruses were used to infect TZM-bl cells in the presence or absence of serially diluted peptides. Two days post-infection, the cells were harvested and lysed in reporter lysis buffer, and the luciferase activity was measured. The IC50 was calculated as described above using GraphPad Prism software (GraphPad Prism software Inc., San Diego, CA).

Where two headings read alike, the source gives them in different places. Some results are limits rather than exact numbers.

In the case of enfuvirtide, the “CD spectrum / α-helicity with N36” value in series [1] (equimolar N36, 37°C 30 min, 222 nm) is “could not form a typical α-helical complex with N36”. Besides, in series [1] (peptide alone, 190-260 nm), the “CD spectrum / α-helical conformation of C-peptide alone” value is given as “minimum α-helical conformation”. Besides, in series [2], the “Tm of C-peptide/N36 complex” value is on record as “undetectable”. The 50% inhibitory concentration (IC50) in [3] came to 56.2 nM; in series [4] (Fig. 5A, 100 TCID50, 48 h 37°C, luciferase, mean, three independent experiments, read-out: mean IC50, virus entry) it was 70.7 nM; in series [4] (HIV-1NL4-3 WT pseudovirus, Table 3, 48 h, mean ± SD of three independent experiments, read-out: IC50), 62.5 ± 11.9 nM; in [5] it was 68.1 nM; in series [6], 47.2 nM; in [7], 14.5 nM. Further, the half-maximal inhibitory concentration (IC50) is 214 nM in [8] (mean over subtype B pseudoviruses of Table 1, TZM-bl); 19.5 nM in series [9]; 55.2 nM in series [10]; 646 ± 57.7 nM in series [12] (HIV-1NL4-3 V38M, TZM-bl, 48 h, mean ± SD of three independent experiments); 262 ± 44.4 nM in [13]; > 3000 nM in [14] (HIV-1NL4-3 V38A/N42T, TZM-bl, 48 h, mean ± SD of three independent experiments). Besides, in [15] (L33S infectious molecular clone of HIV-1NL4-3, TZM-bl, 100 TCID50, two days, mean ± SD of three independent experiments), the IC50 was > 750 nM. For the same substance, the “sensitivity of some subtype B Envs (in words)” value in series [8] (some Envs derived from subtype B, compared to other HIV-1 isolates) is “much less sensitive”. The “activity on T20-resistant variants (in words)” value in series [11] was “high level resistance”. Further, the “resistance change with V38M (in words)” value in [12] (V38M single mutation) was “high-fold resistance changes”. Besides, in series [14] (V38A/N42T double mutations), the “resistance change with V38A/N42T (in words)” value is listed as “high-fold resistance changes”. For the same substance, the “inhibitory activity on L33S virus (in words)” value in series [15] (infectious molecular clone, T20 up to 750 nM) is on record as “no any inhibitory activity at a concentration up to 750 nM”.

As usually defined, the IC50 is the concentration at which inhibition is half-maximal.
